Earlier results in patent publication US6576256B2, “Treatment of patients at elevated cardiovascular risk with a combination of a cholesterol-lowering agent, an inhibitor of the renin-angiotensin system, and aspirin” (priority 2001, dated 2003).

What was measured:
[1] = tested on: patients at risk for cardiovascular events; conditions: daily administration of low doses (approximately 80 mg)
blood pressure = conditions: relative to angiotensin II

Compound | reduction of second heart attacks, strokes, and cardiovascular deaths [1] | hypertensive activity as share of that of angiotensin II (blood pressure)
CC(=O)Oc1ccccc1C(=O)O [aspirin, acetylsalicylic acid] | at least 25% | –
angiotensin I (DRVYIHPFHL; Angiotensin-1; UniProt P01019 25-34, looked up) [decapeptide formed by renin acting on angiotensinogen] | – | about 1%
